IC50 data for 24 compounds are collected here from patent publication US10696693B2, “Fused imidazole derivatives as TGF-beta inhibitors” (Rigel Pharmaceuticals, Inc., priority 2014, dated 2020).

Molecules are shown by their SMILES. Like-named read-outs stand apart in the source and are kept apart here. Bounds are passed on as bounds.

One test relates to GDF8. The test can be described thus: AlphaScreen SureFire p-SMAD3 (Ser423/425) assay, GDF8-stimulated cells. The format is cell-based. As to conditions: Mus musculus. Put shortly: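 Lysate (5 μL) went into 384-well shallow plates with 5 μL of Reaction Buffer, Activation Buffer and AlphaScreen Acceptor bead mix. Plates were sealed, kept dark and shaken for 2 hours at room temperature. Donor beads in dilution buffer (2 μL) were added for another 1½ hours, and p-SMAD3 signal was read on a Synergy-4 or Enspire reader.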
A general note: In Alpha technology, singlet oxygen from a donor bead excites a nearby acceptor bead.

The subject of the next test is TGF-β. The test can be described thus: AlphaScreen SureFire p-SMAD3 (Ser423/425) assay, TGF-β-stimulated cells. As to conditions: Mus musculus. The class given is cell-based. Put shortly:
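The p-SMAD-3 (Ser423/425) SureFire assay measured phosphorylation of endogenous SMAD-3 in cell lysates. Cells were plated overnight in collagen-coated plates, exposed to three-fold serially diluted compounds for about 10 minutes, then stimulated with TGFβ. Lysates (5 μL) received acceptor bead mix for 2 hours, then donor beads for 1½ hours before AlphaScreen reading.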

Setting [1] is: MPC-11, p-SMAD3 (Ser423/425) AlphaScreen in cell lysate, MPC11, GDF8 stimulation, read-out: GDF8: inhibition of GDF8 signaling, GDF pSMAD (MPC11).
The mark [2] stands for this setting: p-SMAD3 (Ser423/425) AlphaScreen in cell lysate, MPC-11, TGF-β stimulation, read-out: TGF-β: inhibition of TGF-β signaling, TGF-β pSMAD (MPC-11).
Setting [3] is: MPC-11, read-out: GDF8: inhibition of GDF8 signaling, GDF pSMAD (MPC11), p-SMAD3 (Ser423/425) AlphaScreen in cell lysate, GDF8 stimulation.
Setting [4] is: MPC-11, read-out: TGF-β: inhibition of TGF-β signaling, TGF-β pSMAD (MPC-11), p-SMAD3 (Ser423/425) AlphaScreen in cell lysate, TGF-β stimulation.

Consider `Cc1c(-c2nc3n(c2-c2ccc4ncccc4c2)CCC3)ccc(F)c1F` [Compound 263, 6-(2-(3,4-difluoro-2-methylphenyl)-6,7-dihydro-5H-pyrrolo[1,2-a]imidzaol-3-yl)quinoline], for which the IC50 in the test on GDF8 (setting [1]) was 0.1 to 1 µM; in the test with TGF-β (setting [2]), above 1 µM.
In the case of `Fc1ccc(-c2nc3n(c2-c2ccc4[nH]ncc4c2)CCC3)cc1Cl` [Compound 264, 5-(2-(3-chloro-4-fluoropheny)-6,7-dihydro-5H-pyrrolo[1,2-a]imidazol-3-yl)-1H-indazole], the values for the IC50 in the test with GDF8 (setting [1]) and in the test with TGF-β (setting [2]) were below 0.05 µM and 0.1 to 1 µM, respectively.
For `Fc1ccc(-c2nc3n(c2-c2ccc4ncsc4c2)CCC3)cc1Cl` [Compound 265, 6-(2-(3-chloro-4-fluoropheny)-6,7-dihydro-5H-pyrrolo[1,2-a]imidazol-3-yl)benzo[d]thiazole], the IC50 is 0.05 to 0.1 µM in the test with GDF8 (setting [1]) and 0.1 to 1 µM in the test on TGF-β (setting [2]).
For `Fc1ccc(-c2nc3n(c2-c2ccc4nccnc4c2)CCC3)cc1Cl` [Compound 266, 6-(2-(3-chloro-4-fluoropheny)-6,7-dihydro-5H-pyrrolo[1,2-a]imidazol-3-yl)quinoxaline], in that order: 0.05 to 0.1 µM and 0.1 to 1 µM.
The corresponding values for `Fc1ccc(-c2nc3n(c2-c2ccc4ncccc4c2)CCC3)cc1Cl` [Compound 267, 6-(2-(3-chloro-4-fluoropheny)-6,7-dihydro-5H-pyrrolo[1,2-a]imidazol-3-yl)quinoline] are 0.1 to 1 µM and 0.1 to 1 µM.
The corresponding values for `Cc1cc(-c2nc3n(c2-c2ccc4[nH]ncc4c2)CCC3)c(F)cc1F` [Compound 268, 5-(2-(2,4-difluoro-5-methylphenyl)-6,7-dihydro-5H-pyrrolo[1,2-a]imidazol-3-yl)-1H-indazole] are below 0.05 µM and 0.05 to 0.1 µM.
Consider `Cc1cc(-c2nc3n(c2-c2ccc4ncsc4c2)CCC3)c(F)cc1F` [Compound 269, 6-(2-(2,4-difluoro-5-methylphenyl)-6,7-dihydro-5H-pyrrolo[1,2-a]imidaozl-3-yl)benzo[d]thiazole], for which the IC50 is below 0.05 µM in the test on GDF8 (setting [1]) and 0.05 to 0.1 µM with TGF-β (setting [2]).
Turning to `Cc1cc(-c2nc3n(c2-c2ccc4nccnc4c2)CCC3)c(F)cc1F` [Compound 270, 6-(2-(2,4-difluoro-5-methylphenyl)-6,7-dihydro-5H-pyrrolo[1,2-a]imidazol-3-yl)quinoxaline], the IC50 was below 0.05 µM in the test on GDF8 (setting [1]) and 0.05 to 0.1 µM in the test with TGF-β (setting [2]).
As for `Cc1cc(-c2nc3n(c2-c2ccc4ncccc4c2)CCC3)c(F)cc1F` [Compound 271, 6-(2-(2,4-difluoro-5-methylphenyl)-6,7-dihydro-5H-pyrrolo[1,2-a]imidazol-3-yl)quinoline], the IC50 with GDF8 (setting [1]) was below 0.05 µM; in the test with TGF-β (setting [2]), 0.1 to 1 µM.
For `Cc1cc(-c2nc3n(c2-c2ccc4[nH]ncc4c2)CCC3)cc(Cl)c1F` [Compound 272, 5-(2-(3-chloro-4-fluoro-5-methylphenyl)-6,7-dihydro-5H-pyrrolo[1,2-a]imidazol-3-yl)-1H-indazole], in that order: above 1 µM and above 1 µM.
For `Cc1cc(-c2nc3n(c2-c2ccc4ncsc4c2)CCC3)cc(Cl)c1F` [Compound 273, 6-(2-(3-chloro-4-fluoro-5-methylpheny)-6,7-dihydro-5H-pyrrolo[1,2-a]imidazol-3-yl)benzo[d]thiazole], the IC50 in the test with GDF8 (setting [1]) and in the test with TGF-β (setting [2]) was above 1 µM throughout.
As to `Cc1cc(-c2nc3n(c2-c2ccc4nccnc4c2)CCC3)cc(Cl)c1F` [Compound 274, 6-(2-(3-chloro-4-fluoro-5-methylpheny)-6,7-dihydro-5H-pyrrolo[1,2-a]imidazol-3-yl)quinoxaline], the IC50 with GDF8 (setting [1]) and with TGF-β (setting [2]) was above 1 µM throughout.
`Cc1cc(-c2nc3n(c2-c2ccc4ncccc4c2)CCC3)cc(Cl)c1F` [Compound 275, 6-(2-(3-chloro-4-fluoro-5-methylpheny)-6,7-dihydro-5H-pyrrolo[1,2-a]imidazol-3-yl)quinoline]: the IC50 in the test with GDF8 (setting [1]) and with TGF-β (setting [2]) was above 1 µM each time.
For the compound `Cc1cc(-c2nc3n(c2-c2ccc4[nH]ncc4c2)CCC3)cc(C)c1F` [Compound 276, 5-(2-(4-fluoro-3,5-dimethylphenyl)-6,7-dihydro-5H-pyrrolo[1,2-a]imidazol-3-yl)-1H-indazole], the IC50 with GDF8 (setting [1]) is 0.1 to 1 µM; in the test with TGF-β (setting [2]), above 1 µM.
On to `Cc1cc(-c2nc3n(c2-c2ccc4ncsc4c2)CCC3)cc(C)c1F` [Compound 277, 6-(2-(4-fluoro-3,5-dimethylphenyl)-6,7-dihydro-5H-pyrrolo[1,2-a]imidazol-3-yl)benzo[d]thiazole], for which the IC50 with GDF8 (setting [1]) and in the test with TGF-β (setting [2]) was above 1 µM throughout.
`Cc1cc(-c2nc3n(c2-c2ccc4nccnc4c2)CCC3)cc(C)c1F` [Compound 278, 6-(2-(4-fluoro-3,5-dimethylphenyl)-6,7-dihydro-5H-pyrrolo[1,2-a]imidazol-3-yl)quinoxaline]: the IC50 in the test on GDF8 (setting [1]) and with TGF-β (setting [2]) was above 1 µM throughout.
As to `Cc1cc(-c2nc3n(c2-c2ccc4ncccc4c2)CCC3)cc(C)c1F` [Compound 279], the IC50 in the test with GDF8 (setting [1]) and in the test on TGF-β (setting [2]) was above 1 µM each time.
As for `Cc1c(F)ccc(-c2nc3n(c2-c2ccc4[nH]ncc4c2)CCC3)c1F` [Compound 280, 5-(2-(2,4-difluoro-3-methylphenyl)-6,7-dihydro-5H-pyrrolo[1,2-a]imidazol-3-yl)-1H-indazole], the IC50 with GDF8 (setting [1]) lay within 0.05 to 0.1 µM; in the test on TGF-β (setting [2]), 0.1 to 1 µM.
For `Cc1c(F)ccc(-c2nc3n(c2-c2ccc4ncsc4c2)CCC3)c1F` [Compound 281, 6-(2-(2,4-difluoro-3-methylphenyl)-6,7-dihydro-5H-pyrrolo[1,2-a]imidazol-3-yl)benzo[d]thiazol], in that order: 0.05 to 0.1 µM and 0.1 to 1 µM.
On to `Cc1c(F)ccc(-c2nc3n(c2-c2ccc4nccnc4c2)CCC3)c1F` [Compound 282, 6-(2-(2,4-difluoro-3-methylphenyl)-6,7-dihydro-5H-pyrrolo[1,2-a]imidazol-3-yl)quinoxaline], for which the IC50 with GDF8 (setting [1]) and in the test on TGF-β (setting [2]) was 0.1 to 1 µM in each case.
Regarding `Cc1c(F)ccc(-c2nc3n(c2-c2ccc4ncccc4c2)CCC3)c1F` [Compound 283, 6-(2-(2,4-difluoro-3-methylphenyl)-6,7-dihydro-5H-pyrrolo[1,2-a]imidazol-3-yl)quinoline], the IC50 is 0.1 to 1 µM with GDF8 (setting [1]) and above 1 µM in the test on TGF-β (setting [2]).
Consider `Cc1cc(F)c(-c2nc3n(c2-c2ccc4[nH]ncc4c2)CCC3)cc1F` [Compound 284, 5-(2-(2,5-difluoro-4-methylphenyl)-6,7-dihydro-5H-pyrrolo[1,2-a]imidazol-3-yl)-1H-indazole], for which the IC50 in the test on GDF8 (setting [3]) and with TGF-β (setting [4]) was above 1 µM in each case.
Take `Cc1cc(F)c(-c2nc3n(c2-c2ccc4ncsc4c2)CCC3)cc1F` [Compound 285, 6-(2-(2,5-difluoro-4-methylphenyl)-6,7-dihydro-5H-pyrrolo[1,2-a]imidazol-3-yl)benzo[d]thiazole]: the IC50 in the test with GDF8 (setting [1]) and in the test with TGF-β (setting [2]) was above 1 µM in each case.
Consider `Cc1cc(F)c(-c2nc3n(c2-c2ccc4nccnc4c2)CCC3)cc1F` [Compound 286, 6-(2-(2,5-difluoro-4-methylphenyl)-6,7-dihydro-5H-pyrrolo[1,2-a]imidazol-3-yl)quinoxaline], for which the IC50 with GDF8 (setting [3]) and in the test with TGF-β (setting [4]) was above 1 µM each time.
